# Results as given in US11999746B2, “Compounds” (GlaxoSmithKline Intellectual Property Development Limited, priority 2014, dated 2024).
# Where a name gives a salt, the structure may show the parent alone. Read-outs that look alike come from different tables or passages of the source.
# Tests used:
# [1] = target: T1, recombinant human Lp-PLA2 (Homo sapiens, UniProt Q13093); test: (1b) hrThioPAF assay, recombinant human Lp-PLA2; type: biochemical; conditions: Examples 266-412 were tested here, one experiment or average of multiple experiments, read-out: rhLp-PLA2 (pIC50) (converted)
# T1 sequence (Q13093 22-441): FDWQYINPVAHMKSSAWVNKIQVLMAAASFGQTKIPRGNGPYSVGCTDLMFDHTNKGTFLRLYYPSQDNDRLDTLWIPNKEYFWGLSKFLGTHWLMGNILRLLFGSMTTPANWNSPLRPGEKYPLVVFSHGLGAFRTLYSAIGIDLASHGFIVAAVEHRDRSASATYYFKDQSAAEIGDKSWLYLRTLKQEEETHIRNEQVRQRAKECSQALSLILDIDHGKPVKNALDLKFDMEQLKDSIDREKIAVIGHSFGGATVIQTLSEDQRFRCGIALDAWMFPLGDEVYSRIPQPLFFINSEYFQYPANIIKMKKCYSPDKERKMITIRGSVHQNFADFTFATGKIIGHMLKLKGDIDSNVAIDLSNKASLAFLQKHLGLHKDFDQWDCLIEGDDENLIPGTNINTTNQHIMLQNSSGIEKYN
# From the text: 1-O-Hexadecyl-2-deoxy-2-thio-S-acetyl-sn-glyceryl-3-phosphorylcholine (2-thio-PAF) is a substrate for PAF-hydrolases (PAF-AH) commercially available from Cayman Chemical. Upon cleavage with PAF-AH, the free thiol is released at the sn-2 position and can then react with 7-diethylamino-3-(4′-maleimidylphenyl)-4-methylcoumarin (CPM) a thiol-reactive coumarin. This reaction (Michael addition) results in an increase in fluorescence. Inhibitors of Lp-PLA2 therefore prevent this cleavage and no fluorescent increase is observed.
# The Thio-PAF assay was run as an unquenched 20 μL assay. The source plate containing the compounds to be tested was prepared by making 1:3 (by volume) serial dilution of the compounds within DMSO on 384-well microplate. Then, 5 μL of the compounds on compound source plate were transferred into 384 well Greiner 784076 (black) plates using STAR+(Hamilton) liquid dispenser. 10 μL of recombinant human Lp-PLA2 enzyme (20 pM rhLp-PLA2 in assay buffer of 50 mM HEPES, pH 7.4, 150 mM NaCl, 1 mM CHAPS) was added to each well of the plate. 5 μL of substrate comprising 40 μM 2-thio-PAF [from ethanol stock], 40 μM CPM [from a DMSO stock] and 400 μM NEM (N-ethylmaleimide) [made fresh daily in DMSO] in assay buffer (50 mM HEPES, pH 7.4, 150 mM NaCl, 1 mM CHAPS) was added to 384 well Greiner 784076 black plates. Plates were vortexed for 10 sec. The plate was covered to protect it from light and incubated for 20 min at 25° C. The plates were read for fluorescence intensity at ex: 380 nm/em: 485 nm using Envision plate reader (Perkin Elmer). Raw data were transferred to Excel software and pIC50 data, curve and QC analysis was conducted by using XL fit module in Excel.
# Lp-PLA2 in human plasma = target: T2, Lp-PLA2 in human plasma (Homo sapiens, UniProt Q13093); test: (3b) Lp-PLA2 human plasma alternative Thio-PAF assay; type: biochemical; conditions: pooled human plasma, read-out: pIC50 in the Lp-PLA2 human plasma assay (converted)
# T2 construct: from tissue; host or cells: pooled human plasma
# T2 sequence (Q13093 22-441): T1 sequence (Q13093 22-441)
# Experimental: (3b) Alternative Thio-PAF Assay
# The human plasma assay utilizes the same thioester analog of PAF as described in (1b) “hr ThioPAF” assay. This assay may detect the activity of Lp-PLA2 in human plasma, as determined by specific inhibition by Lp-PLA2 inhibitors.
# The thio-PAF assay was run as a quenched 20 μL assay. Compounds source plate was prepared by making 1:3 (by volume) serial dilution of the compounds into pure DMSO on 96-well microplate. 5 μL of compounds on compound source plate were transferred to 96-well Corning 3686 (black) low-volume plates by STAR+(Hamilton) liquid dispenser. 10 μL pooled human plasma, which was previously aliquoted and frozen, was added. Plates were centrifuged for 30 sec at 1000 rpm. After 15 minutes preincubation at room temperature, 5 μL of substrate solution comprising 2 mM 2-thio-PAF [from ethanol stock], 52 μM CPM [from a DMSO stock] and 2.5 mM NEM (N-ethylmaleimide) [made fresh daily in DMSO] in assay buffer (50 mM HEPES, pH 7.4, 150 mM NaCl, 1 mM CHAPS) was added to 96-well Corning 3686 (black) low-volume plates. After 3 mins, reaction was quenched with 10 μL of 5% aqueous trifluoroacetic acid (TFA). Plates were centrifuged 30 sec at 1000 rpm, covered to protect from light and incubated for 10 min at room temperature. Plates were read at ex: 380 nm/em: 485 nm using Envision plate reader (Perkin Elmer). Raw data were transferred to Excel software and pIC50 data, curve and QC analysis was conducted by using XL fit module in Excel.
# [2] = (3b) alternative Thio-PAF assay, Examples of 266-412 were tested here
SMILES,IC50 [1] [nM],"IC50 (Lp-PLA2 in human plasma; (3a) Thio-PAF assay, Examples 1-265 and 413-430 were tested here) [nM]",IC50 (Lp-PLA2 in human plasma; [2]) [nM]
"O=c1nc(OCc2ccc(F)c(F)c2)cc2n1CC1(CCNCC1)N2 [Example 406, 7-((3,4-Difluorobenzyl)oxy)-1H-spiro[imidazo[1,2-c]pyrimidine-2,4′-piperidin]-5(3H)-one]",≤ 10000,–,≤ 100
"CN(C)CCC(=O)N1CCN2c3cc(OCc4ccc(F)c(F)c4)nc(=O)n3CC2C1 (stereo not drawn) [Example E337, 7-((3,4-Difluorobenzyl)oxy)-2-(3-(dimethylamino)propanoyl)-3,4,11,11a-tetrahydro-1H-pyrazino[1,2′:3,4]imidazo[1,2-c]pyrimidin-9(2H)-one]",≤ 10000,–,≤ 100
"N#Cc1cc(COc2cc3n(c(=O)n2)CC2CN(CC(=O)O)CCN32)ccc1F (stereo not drawn) [Example E324, 2-(7-((3-Cyano-4-fluorobenzyl)oxy)-9-oxo-3,4,11,11a-tetrahydro-1H-pyrazino[1,2′:3,4]imidazo[1,2-c]pyrimidin-2(9H)-yl)acetic acid, trifluoroacetic acid Salt]",≤ 10000,–,≤ 100
"O=c1nc(OCc2cc(F)c(Oc3ccnc(C(F)(F)F)c3)c(F)c2)cc2n1CC1CS(=O)(=O)CCN21 (stereo not drawn) [Example E370, 7-((3,5-Difluoro-4-((2-(trifluoromethyl)pyridin-4-yl)oxy)benzyl)oxy)-3,4,11,11a-tetrahydropyrimido[6′,1′:2,3]imidazo[5,1-c][1,4]thiazin-9(1H)-one-2,2-dioxide]",≤ 10000,–,≤ 100
"Cc1ccc(Oc2c(F)cc(COc3cc4n(c(=O)n3)CC3CNCCN43)cc2F)cn1 (stereo not drawn) [Example E279, 7-((3,5-Difluoro-4-((6-methylpyridin-3-yl)oxy)benzyl)oxy)-3,4,11,11a-tetrahydro-1H-pyrazino[1′,2′:3,4] imidazo [1,2-c]pyrimidin-9(2H)-one]",≤ 10000,–,≤ 100
"CS(=O)(=O)N1CCN2c3cc(OCc4ccc(F)c(F)c4)nc(=O)n3CC2C1 (stereo not drawn) [Example E313, 7-((3,4-Difluorobenzyl)oxy)-2-(methylsulfonyl)-3,4,11,11a-tetrahydro-1H-pyrazino[1′,2′:3,4]imidazo[1,2-c]pyrimidin-9(2H)-one]",≤ 100,–,≤ 100
"O=c1nc(OCc2cc(F)c(Oc3ccnc(C(F)(F)F)c3)c(F)c2)cc2n1CC1C[S+]([O-])CCN21 (stereo not drawn) [Example E369, 7-((3,5-Difluoro-4-((2-(trifluoromethyl)pyridin-4-yl)oxy)benzyl)oxy)-3,4,11,11a-tetrahydropyrimido[6′,1′:2,3]imidazo[5,1-c][1,4]thiazin-9(1H)-one 2-oxide]",≤ 10000,–,≤ 100
"N[C@H]1C[C@H]2Cn3c(cc(OCc4cc(F)c(Oc5ccnc(C(F)(F)F)c5)c(F)c4)nc3=O)N2C1 [Example E390, (7S,8aS)-7-Amino-3-((3,5-difluoro-4-((2-(trifluoromethyl)pyridin-4-yl)oxy)benzyl)oxy)-7,8,8a,9-tetrahydropyrrolo[1′,2′:3,4]imidazo[1,2-c]pyrimidin-1(6H)-one]",≤ 10000,–,≤ 100
"O=c1nc(OCc2cc(F)c(Oc3ccnc(C(F)(F)F)c3)c(F)c2)cc2n1C[C@@H]1C[C@H](O)CN21 [Example E383, (7S,8aS)-3-((3,5-Difluoro-4-((2-(trifluoromethyl)pyridin-4-yl)oxy)benzyl)oxy)-7-hydroxy-7,8,8a,9-tetrahydropyrrolo[1′,2′:3,4]imidazo[1,2-c]pyrimidin-1(6H)-one]",≤ 1,–,≤ 100
"Cc1ccc(Oc2c(F)cc(COc3cc4n(c(=O)n3)CC3CN(C)CCN43)cc2F)cn1 (stereo not drawn) [Example E321, 7-((3,5-Difluoro-4-((6-methylpyridin-3-yl)oxy)benzyl)oxy)-2-methyl-3,4,11,11a-tetrahydro-1Hpyrazino[1′,2′:3,4]imidazo[1,2-c]pyrimidin-9(2H)-one]",≤ 10000,–,≤ 100
"Cc1ccc(Oc2c(F)cc(COc3cc4n(c(=O)n3)CC3(COC3)N4C)cc2C#N)cn1 [Example 399, 3-Fluoro-5-(((1-methyl-5-oxo-3,5-dihydro-1H-spiro[imidazo[1,2-c]pyrimidine-2,3′-oxetan]-7-yl)oxy)methyl)-2-((6-methylpyridin-3-yl)oxy)benzonitrile]",≤ 10000,–,≤ 100

# Further lines, results first:
IC50 [1] [nM],"IC50 (Lp-PLA2 in human plasma; (3a) Thio-PAF assay, Examples 1-265 and 413-430 were tested here) [nM]",IC50 (Lp-PLA2 in human plasma; [2]) [nM],SMILES
≤ 10000,≤ 10000,–,"N#Cc1cc(COc2cc3n(c(=O)n2)CC2(CCN(Cc4ccccc4)CC2)N3)ccc1F [Example 412, 5-(((1′-Benzyl-5-oxo-3,5-dihydro-1H-spiro[imidazo[1,2-c]pyrimidine-2,4′-piperidin]-7-yl)oxy)methyl)-2-fluorobenzonitrile]"
≤ 10000,–,≤ 100,"CC(C)(N)C(=O)N1CCN2c3cc(OCc4ccc(F)c(F)c4)nc(=O)n3CC2C1 (stereo not drawn) [Example E335, 2-(2-Amino-2-methylpropanoyl)-7-((3,4-difluorobenzyl)oxy)-3,4,11,11a-tetrahydro-1H-pyrazino[1,2′:3,4]imidazo[1,2-c]pyrimidin-9(2H)-one]"
≤ 10000,–,≤ 100,"N[C@@H]1C[C@H]2Cn3c(cc(OCc4cc(F)c(Oc5ccnc(C(F)(F)F)c5)c(F)c4)nc3=O)N2C1 [Example E392, (7R,8aS)-7-Amino-3-((3,5-difluoro-4-((2-(trifluoromethyl)pyridin-4-yl)oxy)benzyl)oxy)-7,8,8a,9-tetrahydropyrrolo[1′,2′:3,4]imidazo[1,2-c]pyrimidin-1(6H)-one]"
≤ 10000,–,≤ 100,"N#Cc1cc(COc2cc3n(c(=O)n2)CC2CN(S(=O)(=O)C4CC4)CCN32)ccc1F (stereo not drawn) [Example E296, 5-(((2-(Cyclopropylsulfonyl)-9-oxo-2,3,4,9,11,11a-hexahydro-1H-pyrazino[1′,2′:3,4]imidazo[1,2-c]pyrimidin-7-yl)oxy)methyl)-2-fluorobenzonitrile 2,2,2-trifluoroacetate]"
≤ 10000,–,≤ 100,"CN(C)C(=O)N1CCN2c3cc(OCc4ccc(F)c(F)c4)nc(=O)n3CC2C1 (stereo not drawn) [Example E301, 7-((3,4-Difluorobenzyl)oxy)-N,N-dimethyl-9-oxo-3,4,11,11a-tetrahydro-1H-pyrazino[1′,2′:3,4]imidazo[1,2-c]pyrimidine-2(9H)-carboxamide]"
≤ 1,–,≤ 100,"O=c1nc(OCc2cc(F)c(Oc3cncc(C(F)(F)F)c3)c(F)c2)cc2n1CC1CNCCN21 (stereo not drawn) [Example E273, 7-((3,5-Difluoro-4-((5-(trifluoromethyl)pyridin-3-yl)oxy)benzyl)oxy)-3,4,11,11a-tetrahydro-1H-pyrazino[1′,2′:3,4] imidazo [1,2-c]pyrimidin-9(2H)-one]"
≤ 10000,–,≤ 100,"NC1(C(=O)N2CCN3c4cc(OCc5ccc(F)c(F)c5)nc(=O)n4CC3C2)CC1 (stereo not drawn) [Example E333, 2-(1-Aminocyclopropanecarbonyl)-7-((3,4-difluorobenzyl)oxy)-3,4,11,11a-tetrahydro-1H-pyrazino[1′,2′:3,4]imidazo[1,2-c]pyrimidin-9(2H)-one hydrochloride]"
